Paper PMC9506480, “Synthesis and Evaluation of Antiproliferative Activity, Topoisomerase IIα Inhibition, DNA Binding and Non-Clinical Toxicity of New Acridine–Thiosemicarbazone Derivatives” (Pharmaceuticals, 2022)

How the values were obtained:
[1] = tested on: B16-F10 (murine melanoma); assay: Alamar blue cytotoxicity assay, B16-F10; type: cell-based; settings: Mus musculus, 72 h incubation
Experimental: (§1) The in vitro cytotoxic activity of the compounds (Table 1) was evaluated against cancer cell lines HCT116 (human colon carcinoma), HepG2 (human hepatocellular carcinoma), B16F10 (murine melanoma carcinoma) and non-cancerous cell line MRC-5 (human lung fibroblast) using the Alamar blue assay after 72 h of incubation; doxorubicin (DOX) was used as a positive control. The unsubstituted derivatives on the acridine cores were encoded as CL, and the disubstituted derivatives as DL.
(§2) The human cancer cell lines HCT116 (colon carcinoma) and HepG2 (hepatocellular carcinoma), the mouse cancer cell line B16-F10 (melanoma), and the non-cancerous human cell line MRC-5 (lung fibroblast) were obtained from the American Type Culture Collection (ATCC, Manassas, VA, USA) and cultured according to the ATCC animal cell culture guide. All cell lines tested negative for mycoplasma using a mycoplasma stain kit.
(§3) Cell viability was measured using the Alamar blue assay, as previously described. Cells were seeded in 96-well plates for all experiments. The compounds were dissolved in dimethyl sulfoxide (DMSO, Sigma-Aldrich) and added to each well in eight serial concentrations ranging from 0.19 to 25 μg/mL. As a positive control, doxorubicin was used. After 72 h of treatment, 20 μL of resazurin (0.312 mg/mL) was added to each well. A SpectraMax 190 Micro-plate Reader was used to measure absorbances at 570 and 595 nm (Molecular Devices, Sunnyvale, CA, USA). Nonlinear regression with 95% confidence intervals (CI 95%) was used to calculate the inhibitory concentration of 50% (IC50) using GraphPad Prism software (Intuitive Software for Science; San Diego, CA, USA).

CT DNA–EtBr = assay: Fluorescence competition with EtBr; type: binding, calf; settings: for Ksv (10^3) (M^−1): [EtBr] = 20 μmol L^−1, [DNA] = 100 μmol L^−1; for Quenching (%): [EtBr] = 20 μmol L^−1, [DNA] = 100 μmol L^−1, [compound] = 0–100 μmol L^−1
Source text: EtBr is a weak fluorophore in an aqueous solvent, which has its fluorescence enhanced when it binds to DNA by the intercalative mode. The study of fluorescence quenching with EtBr is commonly used to assess the ability of compounds to interact with DNA by interfering with the fluorescence of the EtBr–DNA interaction (ESI, Figures S58 and S59). The EtBr–DNA complex in the presence and absence of CL-07 is shown in Figure 6, and the comparison of the quenching extent between studied compounds in terms of F/F0 vs. [compound] is illustrated in Figure 7.
The fluorescence titration results were analyzed using the Stern–Volmer equation [101], and the Ksv values of CT DNA–EtBr in the presence of the compounds calculated the slope of the graphs. The fluorescence spectra of the EtBr or CT DNA–EtBr compounds were obtained by excitation at 526 nm and scanning the emission from 530 to 650 nm. Solutions containing CT DNA–EtBr (20 μM:100 μM) were analyzed in the presence of several derivative concentrations (10, 20, 40, 60, 80 and 100 μM) in Tris-HCl buffer (0.1 M, pH 7.4) (ESI, Figures S58 and S59):F0/F = 1 + Ksv[Q] F0 and F represent the steady-state fluorescence intensities of CT DNA–EtBr in the absence and presence of the compounds, respectively. [Q] refers to the concentration of derivatives as a quencher. Ksv indicates the Stern–Volmer quenching constant.

[2] = tested on: HCT116 (human colon carcinoma); assay: Alamar blue cytotoxicity assay, HCT116; type: cell-based; settings: HCT-116, 72 h incubation
Experimental: as §1, §2, §3

[3] = tested on: MRC-5 (human lung fibroblast); assay: Alamar blue cytotoxicity assay, non-cancerous MRC-5; type: cell-based; settings: MRC5, 72 h incubation, non-cancerous cell
Experimental: as §1, §2, §3

CT DNA = CT DNA binding by UV–Vis absorption spectroscopy; set-up: species or system calf; settings: compound 40 µM, CT DNA 0 to 60 µM, Tris-HCl pH 7.4
Experimental: Absorption spectroscopy is a convenient and simple method for probing the binding of small molecules to DNA. The interaction of selected acridine–thiosemicarbazone derivatives with CT DNA was studied in the 220–500 nm region. Binding constants (Kb) were calculated from [DNA]/(Ɛa − Ɛf) versus [DNA], in which Kb is given by the ratio of slope to the intercept. […] For this, the regions chosen were the ones with the highest absorption intensity above 300 nm, due to the lower interference in DNA absorption in this region (ESI, Figures S50 and S53).
The concentration of the calf thymus, Type I, fibers (CT DNA), was determined based on the extinction coefficient of the absorbance at 260 nm (6600 L mol^−1 cm^−1). All compounds were dissolved in methanol (HPLC grade) at a concentration of 1 mmol L^−1 (stock solution). Working solutions were prepared by diluting the stock solution using Tris-HCl buffer (pH 7.4), with concentrations of 40 µmol L^−1. Under the optimized concentration, the compounds were titered with increasing concentrations of CT DNA (5 to 60 µmol L^−1). After shaking the system and incubating at room temperature for 10 min, the measurements were recorded using a JASCO J818 spectropolarimeter in the range of 220 to 500 nm at 298 K. The intrinsic bond constant (Kb) was obtained by adjusting the data according to the equation below:[DNA]/(Ɛa − Ɛf) = [DNA]/(Ɛb − Ɛf) + 1/[Kb (Ɛb − Ɛf)] where Ɛa, Ɛb and Ɛf are the apparent extinction coefficient of the compounds, the extinction coefficient of the compounds found in their […] and the extinction coefficient of the compounds when fully DNA-bound, respectively. The graph of [DNA]/(Ɛa − Ɛf) versus [DNA] was used to obtain the Kb from the ratio between the slope and the intercept, as previously described in the literature. Binding data were obtained using SigmaPlot 10.0 software. The study of possible DNA denaturation using methanol–water solutions was evaluated up to the maximum final concentration of methanol in the assays (6%) (ESI, Figures S50 and S53).

Q: Oc1ccc(/C=N/NC(=S)Nc2c3ccccc3nc3ccccc23)cc1 [CL-07, (E)-N-(acridin-9-yl)-2-(4-hydroxybenzylidene)hydrazine-1-carbothioamide] was tested. Which IC50 [1] did it give?
A: Its IC50 is 19.8 µM.

Q: And the “Ksv (10^3) (M^−1)” value (CT DNA–EtBr; Stern–Volmer constant)?
A: Its value is 2.6 10^3 M^−1.

Q: And the Ksv (CT DNA–EtBr; Stern–Volmer constant, abstract value)?
A: Its Ksv is 2600 M⁻¹.

Q: And the “Quenching (%)” value (CT DNA–EtBr)?
A: Its value is 21.71%.

Q: And the IC50 [2]?
A: Its IC50 is 39.7 µM.

Q: And the IC50 [3]?
A: The IC50 was 43.4 µM.

Q: What about the “Hypochromic (%)” value (CT DNA) of the same compound?
A: The value was 25.52%.

Q: Which IC50 [1] does the source give for COc1ccc2nc3cc(Cl)ccc3c(NC(=S)N/N=C/c3ccccc3)c2c1 [DL-01, (E)-2-benzylidene-N-(6-chloro-2-methoxyacridin-9-yl)hydrazine-1-carbothioamide] here?
A: The IC50 was 39.6 µM.

Q: What about the “Ksv (10^3) (M^−1)” value (CT DNA–EtBr; Stern–Volmer constant) of the same compound?
A: Its value is 1.8 10^3 M^−1.

Q: What about the “Quenching (%)” value (CT DNA–EtBr) of the same compound?
A: The value was 15.61%.

Q: What about the IC50 [2] of the same compound?
A: The IC50 was greater than 60 µM.

Q: What about the IC50 [3] of the same compound?
A: The IC50 was 37 µM.

Q: What about the “Hypochromic (%)” value (CT DNA) of the same compound?
A: The value was 12.89%.

Q: What does the source list for COc1ccc2nc3cc(Cl)ccc3c(NC(=S)N/N=C/c3cccc(O)c3)c2c1 [DL-08, (E)-N-(6-chloro-2-methoxyacridin-9-yl)-2-(3-hydroxybenzylidene)hydrazine-1-carbothioamide]?
A: IC50 [1]: 14.8 µM; Ksv (10^3) (M^−1) (CT DNA–EtBr; Stern–Volmer constant): 2.5 10^3 M^−1; Quenching (%) (CT DNA–EtBr): 20.83%; IC50 [2]: 24.2 µM; IC50 [3]: 14.4 µM; Hypochromic (%) (CT DNA): 14.79%
